The experiment concerns advanced renal cell carcinoma. As to the kind of experiment: Clinical outcome of nivolumab (anti-PD-1) in RCC patients of the NIVOREN trial, stratified by antibiotic use. It counts as in vivo, human. How it is done:
The patients were included from Gustave Roussy Cancer Campus, France. Inclusion criteria were patients with stage IV clear cell or non-clear cell RCC histology and disease progression during or after >1 prior anti-angiogenic therapy regimens who received nivolumab intravenously (i.v.) 3 mg/kg every 2 weeks until disease progression or intolerable toxicity in the NIVOREN GETUG-AFU 26 Phase II trial (EudraCT: 2015-004117-24) (Albiges et al., 2018). Computer tomography (CT) scans were performed at baseline and every 8 to 12 weeks for the first year and then every 12 to 15 weeks until disease progression. Tumor response was assessed using the Response Evaluation Criteria in Solid Tumors version 1.1 (RECIST v1.1) (Eisenhauer et al., 2009). […] We evaluated objective response rate defined as the number of patients with a complete response and a partial response. The best overall response was defined as the investigator-assessed best response (complete response, partial response, stable disease, or progressive disease) from the start date of nivolumab to objectively documented disease progression or subsequent therapy, whichever occurred first. […] Forty patients were analyzed in addition to 60 non-small cell lung cancer patients in the Science 2018 paper (Routy et al., 2018). […] For the first time, RCC were analyzed as a single and independent cohort in this paper. […]

The values below come from patent US12605412B2, “Microbial compositions for improving the efficacy of anticancer treatments based on immune checkpoint inhibitors and/or tyrosine kinase inhibitors and markers of responsiveness to such treatments” (INSTITUT GUSTAVE ROUSSY, priority 2019, dated 2026).

Take nivolumab [ICB]: the “objective response rate (ORR)” value (RCC patients on nivolumab, noATB subgroup, RECIST v1.1) is 28%. This substance returned a primary resistance (no ATB subgroup during ICB therapy) of 33%.
